Patent US12077503B2, “Substituted cyclic amides and their use as herbicides” (FMC CORPORATION, priority 2015, dated 2024)

Key:
Format in all cases: in vivo
Kochia (Kochia scoparia) [1] = assay: Test A preemergence; details: Bassia scoparia, pre-emergence, 240 h, preemergence, 0 to 100 scale where 0 is no effect and 100 is complete control, read-out: Kochia plant response rating
Summary of the method: (§1)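 Preemergence soil spray on seeded pots or post-emergence spray on 1–2 leaf plants, in loam–sand blend. Greenhouse ~10 d. Visual rating 0–100 against untreated plants.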

[2] = tested on: barnyardgrass (Echinochloa crus-galli); assay: Test A preemergence; details: Echinochloa crus-galli, pre-emergence, 240 h, preemergence, 0 to 100 scale where 0 is no effect and 100 is complete control, read-out: Barnyardgrass plant response rating
Summary of the method: as §1

[3] = tested on: giant foxtail (Setaria faberii); assay: Test A preemergence; details: Setaria faberi, pre-emergence, 240 h, preemergence, 0 to 100 scale where 0 is no effect and 100 is complete control, read-out: Foxtail, Giant plant response rating
Summary of the method: as §1

[4] = tested on: pigweed (Amaranthus retroflexus); assay: Test A preemergence; details: Amaranthus retroflexus, pre-emergence, 240 h, preemergence, 0 to 100 scale where 0 is no effect and 100 is complete control, read-out: Pigweed plant response rating
[5] = tested on: ragweed (common ragweed, Ambrosia elatior); assay: Test A preemergence; details: Ambrosia artemisiifolia, pre-emergence, 240 h, preemergence, 0 to 100 scale where 0 is no effect and 100 is complete control, read-out: Ragweed plant response rating
Summary of the method: as §1

[6] = tested on: ryegrass, Italian (Italian ryegrass, Lolium multiflorum); assay: Test A preemergence; details: Lolium multiflorum, pre-emergence, 240 h, preemergence, 0 to 100 scale where 0 is no effect and 100 is complete control, read-out: Ryegrass, Italian plant response rating
Summary of the method: as §1

[7] = tested on: Galium (catchweed bedstraw, Galium aparine); assay: Test A postemergence; details: Galium, post-emergence, 240 h, postemergence, read-out: Galium plant response rating
Summary of the method: as §1

Kochia (Kochia scoparia) [8] = assay: Test A postemergence; details: Bassia scoparia, post-emergence, 240 h, postemergence, read-out: Kochia plant response rating
Summary of the method: as §1

[9] = tested on: barnyardgrass (Echinochloa crus-galli); assay: Test A postemergence; details: Echinochloa crus-galli, post-emergence, 240 h, postemergence, read-out: Barnyardgrass plant response rating
Summary of the method: as §1

[10] = tested on: blackgrass (Alopecurus myosuroides); assay: Test A postemergence; details: Alopecurus myosuroides, post-emergence, 240 h, postemergence, read-out: Blackgrass plant response rating
Summary of the method: as §1

corn (Zea mays) = assay: Test A postemergence; details: Zea mays, post-emergence, 240 h, postemergence, read-out: Corn plant response rating
Summary of the method: as §1

[11] = tested on: giant foxtail (Setaria faberii); assay: Test A postemergence; details: Setaria faberi, post-emergence, 240 h, postemergence, read-out: Foxtail, Giant plant response rating
Summary of the method: as §1

[12] = tested on: pigweed (Amaranthus retroflexus); assay: Test A postemergence; details: Amaranthus retroflexus, post-emergence, 240 h, postemergence
Summary of the method: as §1

[13] = tested on: ryegrass, Italian (Italian ryegrass, Lolium multiflorum); assay: Test A postemergence; details: Lolium multiflorum, post-emergence, 240 h, postemergence
Summary of the method: as §1

[14] = tested on: wheat (Triticum aestivum); assay: Test A postemergence; details: Triticum aestivum, post-emergence, 240 h, postemergence
Summary of the method: as §1

[15] = 125 g ai/ha, visual injury on 0 to 100 scale (0 no effect, 100 complete control), approx. 10 d
[16] = 500 g ai/ha, 0 to 100 scale, 0 is no effect, 100 is complete control

O=C1NC[C@H](c2ccc(F)c(OC(F)(F)C(F)F)c2)[C@H]1C(=O)Nc1ccc(F)cc1F (racemic) [Compound 1154]
pest or weed control at 125 g/ha (Kochia (Kochia scoparia) [1]; 125 g ai/ha, approx. 10 d): 70%
pest or weed control at 500 g/ha (Kochia (Kochia scoparia) [1]; 500 g ai/ha): 90%
pest or weed control at 125 g/ha ([2]; 125 g ai/ha, approx. 10 d): 90%
pest or weed control at 500 g/ha ([2]; 500 g ai/ha): 90%
pest or weed control at 125 g/ha ([3]; 125 g ai/ha, approx. 10 d): 90%
pest or weed control at 500 g/ha ([3]; 500 g ai/ha): 90%
pest or weed control at 125 g/ha ([4]; 125 g ai/ha, approx. 10 d): 60%
pest or weed control at 500 g/ha ([4]; 500 g ai/ha): 80%
pest or weed control at 125 g/ha ([5]; 125 g ai/ha, approx. 10 d): 20%
pest or weed control at 500 g/ha ([5]; 500 g ai/ha): 90%
pest or weed control at 125 g/ha ([6]; 125 g ai/ha, approx. 10 d): 30%
pest or weed control at 500 g/ha ([6]; 500 g ai/ha): 50%
pest or weed control at 125 g/ha [7, 15]: 60%
pest or weed control at 500 g/ha [7, 16]: 70%
pest or weed control at 125 g/ha (Kochia (Kochia scoparia) [8]; [15]): 60%
pest or weed control at 500 g/ha (Kochia (Kochia scoparia) [8]; [16]): 60%
pest or weed control at 125 g/ha [9, 15]: 70%
pest or weed control at 500 g/ha [9, 16]: 90%
pest or weed control at 125 g/ha [10, 15]: 70%
pest or weed control at 500 g/ha [10, 16]: 90%
plant injury at 125 g/ha (corn (Zea mays); [15]): 90%
plant injury at 500 g/ha (corn (Zea mays); [16]): 90%
pest or weed control at 125 g/ha [11, 15]: 90%
pest or weed control at 500 g/ha [11, 16]: 60%
pest or weed control at 125 g/ha ([12]; 125 g ai/ha, visual injury vs untreated controls after approx. 10 d, 0 = no effect, 100 = complete control, read-out: Pigweed plant response rating (0 to 100 scale)): 60%
pest or weed control at 500 g/ha ([12]; 500 g ai/ha, 0 to 100 scale, 0 is no effect, 100 is complete control, read-out: Pigweed plant response rating): 70%
pest or weed control at 125 g/ha ([13]; 125 g ai/ha, visual injury vs untreated controls after approx. 10 d, 0 = no effect, 100 = complete control, read-out: Ryegrass, Italian plant response rating (0 to 100 scale)): 30%
pest or weed control at 500 g/ha ([13]; 500 g ai/ha, 0 to 100 scale, 0 is no effect, 100 is complete control, read-out: Ryegrass, Italian plant response rating): 50%
plant injury at 125 g/ha ([14]; 125 g ai/ha, visual injury vs untreated controls after approx. 10 d, 0 = no effect, 100 = complete control, read-out: Wheat plant response rating (0 to 100 scale)): 40%
plant injury at 500 g/ha ([14]; 500 g ai/ha, 0 to 100 scale, 0 is no effect, 100 is complete control, read-out: Wheat plant response rating): 80%
